According to patent publication US7211576B2, “Diaminothiazoles” (Hoffmann-La Roche Inc., priority 2004, dated 2007):

Columns and labels:
[1] = system: HCT116, a colorectal carcinoma cell line; assay: Tetrazolium dye (MTT) proliferation assay; format: cell-based; settings: Homo sapiens, HCT-116; HCT116 cells, inhibition of cell proliferation
Method: Proliferation was evaluated by the tetrazolium dye assay according to the procedure of Denizot and Lang (Denizot, F. and Lang, R. J Immunol Methods 1986, 89, 271–277). The cell line used was HCT116, a colorectal carcinoma cell line obtained from the American Type Cell Culture Collection (ATCC; Rockville, Md.). The cells were grown in McCoy's 5A medium supplemented with 10% FCS and L-glutamine.
Cells were plated at the appropriate seeding density to give logarithmic growth over the course of the assay in a 96-well tissue culture plate. Plates were incubated overnight at 37° C. in a humidified incubator with 5% CO2. The next day, test compounds were serially diluted to four times the final concentration in the appropriate medium containing 1.2% DMSO. One-fourth final volume of each dilution was added in duplicate to the plates containing cells. The same volume of 1.2% DMSO in medium was added to a row of “control wells” such that the final concentration of DMSO in each well was 0.3%. Wells to which no cells were added served as the “blank.” Wells to which no inhibitor was added served as “no inhibitor control.” The plates were) returned to the incubator, and at set time points (determined by their growth curves) plates were analyzed as described below.
3-(4,5-dimethylthiazole-2-yl)-2,5-diphenyl-2H-tetrazolium bromide (thiazolyl blue; MTT; Sigma) was added to each well to yield a final concentration of 1 mg/ml. Plates were returned to the incubator for 2.5–3 hours at 37° C. The MTT-containing medium was removed and the resulting formazan metabolite was solubilized in 100% ethanol with shaking for 15 minutes at room temperature. Absorbance readings were taken in a microtiter plate reader (Dynatech and Molecular Devices plate readers were used interchangeably) at a wavelength of 570 nm with a 650 nm reference. Percent inhibition (% INH) is calculated by subtracting the absorbance of the blank well from all wells, then subtracting the ratio of the average absorbance of each test duplicate (SAVE) by the average of the controls (CAVE) from 1.00. The final number is then multiplied by 100 (% INH=(1.00−SAVE/CAVE)×100). The concentration at which 50% inhibition of cell proliferation is obtained (the IC50) is determined from the linear regression of a plot of the logarithm of the concentration versus percent inhibition.

human cyclin E-CDK2 = human cyclin E-CDK2 (Homo sapiens, UniProt P24941); assay: FlashPlate kinase assay, cyclin E-CDK2; format: biochemical; settings: Rb protein substrate, 1 μM ATP, 33P-ATP, 30 minutes room temperature
human cyclin B-CDK1 = human cyclin B-CDK1 (Homo sapiens, UniProt P06493); assay: FlashPlate kinase assay, cyclin B-CDK1; format: biochemical; settings: Rb protein substrate, 1 μM ATP, 33P-ATP, 30 minutes room temperature
Sequence of human cyclin B-CDK1 (P06493 whole entry): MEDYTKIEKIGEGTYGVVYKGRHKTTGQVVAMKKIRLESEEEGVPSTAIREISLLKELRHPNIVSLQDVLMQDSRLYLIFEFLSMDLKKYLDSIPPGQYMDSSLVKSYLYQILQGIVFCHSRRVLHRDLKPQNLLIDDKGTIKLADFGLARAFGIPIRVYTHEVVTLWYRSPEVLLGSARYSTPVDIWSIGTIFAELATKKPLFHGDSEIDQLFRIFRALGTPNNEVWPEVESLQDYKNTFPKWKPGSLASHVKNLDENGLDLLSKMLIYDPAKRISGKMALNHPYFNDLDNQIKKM
Sequence of human cyclin B-CDK1 (P14635 whole entry partner): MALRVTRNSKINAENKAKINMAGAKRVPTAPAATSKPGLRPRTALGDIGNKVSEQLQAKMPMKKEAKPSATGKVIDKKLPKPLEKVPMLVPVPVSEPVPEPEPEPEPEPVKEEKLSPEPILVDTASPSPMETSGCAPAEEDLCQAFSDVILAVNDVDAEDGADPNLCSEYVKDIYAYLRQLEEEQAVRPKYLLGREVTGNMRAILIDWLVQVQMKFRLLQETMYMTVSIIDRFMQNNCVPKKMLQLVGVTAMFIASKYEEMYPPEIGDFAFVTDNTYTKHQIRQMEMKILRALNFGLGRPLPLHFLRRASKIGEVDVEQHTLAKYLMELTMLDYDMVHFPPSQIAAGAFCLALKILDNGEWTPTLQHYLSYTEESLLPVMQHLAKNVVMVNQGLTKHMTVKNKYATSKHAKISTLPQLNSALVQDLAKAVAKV

human cyclin D1-CDK4 = human cyclin D1-CDK4 (Homo sapiens, UniProt P11802); assay: FlashPlate kinase assay, cyclin D1-CDK4; format: biochemical; settings: Rb protein substrate, 1 μM ATP, 33P-ATP, 30 minutes room temperature; read-out: CDK4 IC50
Sequence of human cyclin D1-CDK4 (P11802 whole entry): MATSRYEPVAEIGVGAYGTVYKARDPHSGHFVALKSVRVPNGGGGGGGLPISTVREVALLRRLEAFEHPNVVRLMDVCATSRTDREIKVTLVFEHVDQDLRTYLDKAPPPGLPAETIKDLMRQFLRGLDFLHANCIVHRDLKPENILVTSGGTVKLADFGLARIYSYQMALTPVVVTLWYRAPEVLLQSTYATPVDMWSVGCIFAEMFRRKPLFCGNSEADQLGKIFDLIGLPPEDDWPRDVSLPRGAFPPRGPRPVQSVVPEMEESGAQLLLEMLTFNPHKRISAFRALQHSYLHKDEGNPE
Sequence of human cyclin D1-CDK4 (P24385 whole entry partner): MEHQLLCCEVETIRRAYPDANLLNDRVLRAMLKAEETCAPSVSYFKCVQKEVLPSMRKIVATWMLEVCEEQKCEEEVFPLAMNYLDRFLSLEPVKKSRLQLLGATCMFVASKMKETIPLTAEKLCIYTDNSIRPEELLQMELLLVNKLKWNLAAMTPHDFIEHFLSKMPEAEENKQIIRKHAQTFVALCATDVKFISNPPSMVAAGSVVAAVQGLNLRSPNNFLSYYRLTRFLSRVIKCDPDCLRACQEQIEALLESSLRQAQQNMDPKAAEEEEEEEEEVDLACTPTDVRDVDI

IC50 [1] | IC50 (human cyclin E-CDK2) | IC50 (human cyclin B-CDK1) | IC50 (human cyclin D1-CDK4) | SMILES
6020 nM | 3450 nM | 1610 nM | 19 nM | Nc1nc(Nc2ccc(N3CCC(N4CCCC(O)C4)CC3)cc2)sc1C(=O)c1cccc(O)c1 (centres unmarked) [Example 81, {4-Amino-2-[4-(3-hydroxy-[1,4′]bipiperidinyl-1′-yl)-phenylamino]-thiazol-5-yl}-(3-hydroxy-phenyl)-methanone]
2820 nM | 1670 nM | 580 nM | 7 nM | Nc1nc(Nc2ccc(N3CCC(N4CCCC4)CC3)cc2)sc1C(=O)c1cccc([N+](=O)[O-])c1 [Example 90, {4-Amino-2-[4-(4-pyrrolidin-1-yl-piperidin-1-yl)-phenylamino]-thiazol-5-yl}-(3-nitro-phenyl)-methanone]
1640 nM | 1820 nM | 710 nM | 9 nM | Nc1nc(Nc2ccc(N3CCC(N4CCCC(O)C4)CC3)cc2)sc1C(=O)c1cccc([N+](=O)[O-])c1 (centres unmarked) [Example 91, {4-Amino-2-[4-(3-hydroxy-[1,4′]bipiperidinyl-1′-yl)-phenylamino]-thiazol-5-yl}-(3-nitro-phenyl)-methanone]
2900 nM | 1600 nM | 870 nM | 15 nM | CN(C)C1CCN(c2ccc(Nc3nc(N)c(C(=O)c4cccc([N+](=O)[O-])c4)s3)cc2)CC1 [Example 92, {4-Amino-2-[4-(4-dimethylamino-piperidin-1-yl)-phenylamino]-thiazol-5-yl}-(3-nitro-phenyl)-methanone]
1370 nM | 945 nM | 2710 nM | 12 nM | CCc1cccc(C(=O)c2sc(Nc3ccc(N4CCC(N5CCCC5)CC4)cc3)nc2N)c1 [Example 114, {4-Amino-2-[4-(4-pyrrolidin-1-yl-piperidin-1-yl)-phenylamino]-thiazol-5-yl}-(3-ethyl-phenyl)-methanone]

More lines, now with the values behind:

SMILES | IC50 [1] | IC50 (human cyclin E-CDK2) | IC50 (human cyclin B-CDK1) | IC50 (human cyclin D1-CDK4)
CN(C)C1CCN(c2ccc(Nc3nc(N)c(C(=O)c4cccc(O)c4)s3)cc2)CC1 [Example 50, {4-Amino-2-[4-(4-dimethylamino-piperidin-1-yl)-phenylamino]-thiazol-5-yl}-(3-hydroxy-phenyl)-methanone] | 3120 nM | 2790 nM | 810 nM | 7 nM
N#Cc1cccc(C(=O)c2sc(Nc3ccc(N4CCC(N5CCCC5)CC4)cc3)nc2N)c1 [Example 72, 3-{4-Amino-2-[4-(4-pyrrolidin-1-yl-piperidin-1-yl)-phenylamino]-thiazole-5-carbonyl}-benzonitrile] | 2500 nM | 2050 nM | 702 nM | 17 nM
N#Cc1cccc(C(=O)c2sc(Nc3ccc(N4CCC(N5CCCC(O)C5)CC4)cc3)nc2N)c1 (centres unmarked) [Example 80, 3-{4-Amino-2-[4-(3-hydroxy-[1,4′]bipiperidinyl-1′-yl)-phenylamino]-thiazole-5-carbonyl}-benzonitrile] | 3490 nM | 2580 nM | 1370 nM | 17 nM
COc1ccc(C(=O)c2sc(Nc3ccc(N4CCC(N5CCCC5)CC4)cc3)nc2N)cc1[N+](=O)[O-] [Example 107, {4-Amino-2-[4-(4-pyrrolidin-1-yl-piperidin-1-yl)-phenylamino]-thiazol-5-yl}-(4-methoxy-3-nitro-phenyl)-methanone] | 3680 nM | 2390 nM | 1000 nM | 38 nM
COc1ccc(C(=O)c2sc(Nc3ccc(N4CCC(N5CCCCC5)CC4)cc3)nc2N)cc1[N+](=O)[O-] [Example 108, [4-Amino-2-(4-[1,4′]bipiperidinyl-1′-yl-phenylamino)-thiazol-5-yl]-(4-methoxy-3-nitro-phenyl)-methanone] | 996 nM | 2610 nM | 1290 nM | 34 nM
COc1ccc(C(=O)c2sc(Nc3ccc(N4CCC(N(C)C)CC4)cc3)nc2N)cc1[N+](=O)[O-] [Example 113, {4-Amino-2-[4-(4-dimethylamino-piperidin-1-yl)-phenylamino]-thiazol-5-yl}-(4-methoxy-3-nitro-phenyl)-methanone] | 1740 nM | 7270 nM | 940 nM | 45 nM
